How the values were obtained:
[1] = tested on: Tyrosine-protein kinase ABL1 (Homo sapiens), P00519 [F317L]; details: Compound concentration 1000.0 nM
[2] = tested on: Tyrosine-protein kinase ABL1 (Homo sapiens), P00519 [H396P]; details: Compound concentration 1000.0 nM
[3] = molecular target: Tyrosine-protein kinase ABL1 (Homo sapiens) (UniProt P00519); details: Compound concentration 1000.0 nM
[4] = molecular target: Tyrosine-protein kinase ABL2 (Homo sapiens) (UniProt P42684); details: Compound concentration 1000.0 nM
Chain of Tyrosine-protein kinase ABL2 (Homo sapiens) (P42684 whole entry): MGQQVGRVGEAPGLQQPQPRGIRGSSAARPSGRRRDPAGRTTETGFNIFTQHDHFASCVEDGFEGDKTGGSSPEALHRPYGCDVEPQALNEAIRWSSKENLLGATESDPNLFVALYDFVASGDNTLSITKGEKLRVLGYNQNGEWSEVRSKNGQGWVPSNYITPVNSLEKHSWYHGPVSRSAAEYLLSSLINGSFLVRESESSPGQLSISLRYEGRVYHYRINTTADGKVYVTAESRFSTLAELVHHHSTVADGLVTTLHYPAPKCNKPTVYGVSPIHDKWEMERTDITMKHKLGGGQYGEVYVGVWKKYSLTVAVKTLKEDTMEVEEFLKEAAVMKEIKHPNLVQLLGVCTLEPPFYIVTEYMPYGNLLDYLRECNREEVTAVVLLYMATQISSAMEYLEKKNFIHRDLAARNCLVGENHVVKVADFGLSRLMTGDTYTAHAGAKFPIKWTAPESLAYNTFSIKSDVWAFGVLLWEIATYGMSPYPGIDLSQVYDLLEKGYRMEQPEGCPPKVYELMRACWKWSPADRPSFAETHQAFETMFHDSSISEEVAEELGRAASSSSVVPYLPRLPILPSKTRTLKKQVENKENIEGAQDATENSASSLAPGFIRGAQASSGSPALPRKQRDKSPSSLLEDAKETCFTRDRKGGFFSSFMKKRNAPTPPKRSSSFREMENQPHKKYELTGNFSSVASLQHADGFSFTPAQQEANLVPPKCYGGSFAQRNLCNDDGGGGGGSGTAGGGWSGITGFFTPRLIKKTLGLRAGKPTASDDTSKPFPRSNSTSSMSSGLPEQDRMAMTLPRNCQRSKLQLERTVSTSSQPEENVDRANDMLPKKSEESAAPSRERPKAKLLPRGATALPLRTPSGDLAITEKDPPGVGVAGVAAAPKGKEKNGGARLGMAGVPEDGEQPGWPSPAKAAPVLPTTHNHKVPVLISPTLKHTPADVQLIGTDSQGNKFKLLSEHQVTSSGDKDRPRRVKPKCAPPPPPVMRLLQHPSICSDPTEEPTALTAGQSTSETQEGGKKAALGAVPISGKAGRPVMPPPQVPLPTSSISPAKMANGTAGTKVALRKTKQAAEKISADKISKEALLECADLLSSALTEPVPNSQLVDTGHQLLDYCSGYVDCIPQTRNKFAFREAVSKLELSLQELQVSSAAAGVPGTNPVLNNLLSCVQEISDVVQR

[5] = molecular target: Atypical kinase COQ8B, mitochondrial (Homo sapiens) (UniProt Q96D53); details: Compound concentration 1000.0 nM
[6] = molecular target: ALK tyrosine kinase receptor (Homo sapiens) (UniProt Q9UM73); details: Compound concentration 1000.0 nM
[7] = molecular target: Calcium/calmodulin-dependent protein kinase type 1D (Homo sapiens) (UniProt Q8IU85); details: Compound concentration 1000.0 nM
[8] = molecular target: Cyclin-dependent kinase 13 (Homo sapiens) (UniProt Q14004); details: Compound concentration 1000.0 nM
[9] = molecular target: Cyclin-dependent kinase 7 (Homo sapiens) (UniProt P50613); details: Compound concentration 1000.0 nM
[10] = molecular target: Cyclin-dependent kinase 9 (Homo sapiens) (UniProt P50750); details: Compound concentration 1000.0 nM
[11] = molecular target: Cyclin-dependent kinase-like 3 (Homo sapiens) (UniProt Q8IVW4); details: Compound concentration 1000.0 nM
[12] = molecular target: Macrophage colony-stimulating factor 1 receptor (Homo sapiens) (UniProt P07333); details: Compound concentration 1000.0 nM
Chain of Macrophage colony-stimulating factor 1 receptor (Homo sapiens) (P07333 whole entry, canonical isoform): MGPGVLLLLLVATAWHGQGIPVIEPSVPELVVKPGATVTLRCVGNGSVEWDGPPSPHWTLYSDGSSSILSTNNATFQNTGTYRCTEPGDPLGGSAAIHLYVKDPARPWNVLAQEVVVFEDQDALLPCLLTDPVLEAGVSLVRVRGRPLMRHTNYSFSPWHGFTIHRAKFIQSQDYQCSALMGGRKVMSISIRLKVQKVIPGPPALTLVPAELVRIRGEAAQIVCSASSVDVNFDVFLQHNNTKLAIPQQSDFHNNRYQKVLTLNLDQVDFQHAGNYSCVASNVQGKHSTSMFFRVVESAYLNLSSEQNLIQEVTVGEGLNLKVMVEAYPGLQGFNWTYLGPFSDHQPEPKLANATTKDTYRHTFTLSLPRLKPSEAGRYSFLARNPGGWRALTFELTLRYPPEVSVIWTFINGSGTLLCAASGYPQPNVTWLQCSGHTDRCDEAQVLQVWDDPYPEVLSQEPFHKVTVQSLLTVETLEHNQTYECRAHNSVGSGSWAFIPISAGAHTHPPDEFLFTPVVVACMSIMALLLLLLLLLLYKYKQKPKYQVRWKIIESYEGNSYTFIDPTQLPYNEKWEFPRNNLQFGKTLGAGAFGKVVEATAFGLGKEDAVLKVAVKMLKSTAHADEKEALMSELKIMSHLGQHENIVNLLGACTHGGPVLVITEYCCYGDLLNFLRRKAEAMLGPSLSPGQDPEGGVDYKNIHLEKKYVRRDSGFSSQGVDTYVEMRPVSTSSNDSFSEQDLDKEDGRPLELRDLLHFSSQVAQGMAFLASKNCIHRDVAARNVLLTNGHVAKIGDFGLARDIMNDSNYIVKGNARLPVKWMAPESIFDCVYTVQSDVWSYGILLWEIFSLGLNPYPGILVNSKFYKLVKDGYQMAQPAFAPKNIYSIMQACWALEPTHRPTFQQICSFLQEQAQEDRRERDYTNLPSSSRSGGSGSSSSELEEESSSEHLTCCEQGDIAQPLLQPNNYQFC

[13] = molecular target: Casein kinase I isoform gamma-3 (Homo sapiens) (UniProt Q9Y6M4); details: Compound concentration 1000.0 nM
[14] = tested on: Epidermal growth factor receptor (Homo sapiens), P00533 [UNDEFINED MUTATION]; details: Compound concentration 1000.0 nM
[15] = tested on: Epidermal growth factor receptor (Homo sapiens), P00533 [L858R]; details: Compound concentration 1000.0 nM
[16] = molecular target: Ephrin type-A receptor 2 (Homo sapiens) (UniProt P29317); details: Compound concentration 1000.0 nM
Chain of Ephrin type-A receptor 2 (Homo sapiens) (P29317 whole entry): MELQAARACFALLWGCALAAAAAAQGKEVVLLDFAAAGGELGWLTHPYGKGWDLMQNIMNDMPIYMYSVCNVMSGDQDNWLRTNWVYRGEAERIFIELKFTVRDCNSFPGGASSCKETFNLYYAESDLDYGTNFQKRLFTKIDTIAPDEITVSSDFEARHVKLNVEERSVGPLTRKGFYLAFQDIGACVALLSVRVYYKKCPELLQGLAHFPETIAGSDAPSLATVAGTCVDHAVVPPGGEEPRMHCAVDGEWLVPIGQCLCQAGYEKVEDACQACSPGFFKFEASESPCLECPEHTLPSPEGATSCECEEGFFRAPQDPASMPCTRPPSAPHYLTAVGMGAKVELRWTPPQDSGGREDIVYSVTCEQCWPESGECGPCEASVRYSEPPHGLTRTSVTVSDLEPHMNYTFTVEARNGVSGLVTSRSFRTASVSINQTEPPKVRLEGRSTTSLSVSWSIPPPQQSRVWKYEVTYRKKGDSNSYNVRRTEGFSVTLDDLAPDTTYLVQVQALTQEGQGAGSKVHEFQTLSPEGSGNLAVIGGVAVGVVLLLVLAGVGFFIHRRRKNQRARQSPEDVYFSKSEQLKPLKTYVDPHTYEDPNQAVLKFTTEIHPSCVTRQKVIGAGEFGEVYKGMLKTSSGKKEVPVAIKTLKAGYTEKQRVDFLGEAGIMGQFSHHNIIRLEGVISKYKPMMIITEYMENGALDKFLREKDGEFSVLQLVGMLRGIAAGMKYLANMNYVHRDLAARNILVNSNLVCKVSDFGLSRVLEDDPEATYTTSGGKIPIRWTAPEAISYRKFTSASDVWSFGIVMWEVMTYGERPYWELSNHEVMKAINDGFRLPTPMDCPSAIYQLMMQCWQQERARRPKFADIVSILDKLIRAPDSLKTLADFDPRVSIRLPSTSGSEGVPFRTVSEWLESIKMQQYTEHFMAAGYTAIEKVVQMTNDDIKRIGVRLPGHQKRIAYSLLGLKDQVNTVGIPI

[17] = molecular target: Vascular endothelial growth factor receptor 1 (Homo sapiens) (UniProt P17948); details: Compound concentration 1000.0 nM
[18] = tested on: Receptor-type tyrosine-protein kinase FLT3 (Homo sapiens), P36888 [D835Y]; details: Compound concentration 1000.0 nM
[19] = tested on: Receptor-type tyrosine-protein kinase FLT3 (Homo sapiens), P36888 [UNDEFINED MUTATION]; details: Compound concentration 1000.0 nM
[20] = molecular target: Glycogen synthase kinase-3 beta (Homo sapiens) (UniProt P49841); details: Compound concentration 1000.0 nM
[21] = molecular target: Homeodomain-interacting protein kinase 1 (Homo sapiens) (UniProt Q86Z02); details: Compound concentration 1000.0 nM
[22] = molecular target: Interleukin-1 receptor-associated kinase 3 (Homo sapiens) (UniProt Q9Y616); details: Compound concentration 1000.0 nM
[23] = molecular target: Interleukin-1 receptor-associated kinase 4 (Homo sapiens) (UniProt Q9NWZ3); details: Compound concentration 1000.0 nM
[24] = molecular target: Tyrosine-protein kinase JAK2 (Homo sapiens) (UniProt O60674); details: Compound concentration 1000.0 nM
[25] = molecular target: Serine/threonine-protein kinase STK11 (Homo sapiens) (UniProt Q15831); details: Compound concentration 1000.0 nM
Chain of Serine/threonine-protein kinase STK11 (Homo sapiens) (Q15831 whole entry): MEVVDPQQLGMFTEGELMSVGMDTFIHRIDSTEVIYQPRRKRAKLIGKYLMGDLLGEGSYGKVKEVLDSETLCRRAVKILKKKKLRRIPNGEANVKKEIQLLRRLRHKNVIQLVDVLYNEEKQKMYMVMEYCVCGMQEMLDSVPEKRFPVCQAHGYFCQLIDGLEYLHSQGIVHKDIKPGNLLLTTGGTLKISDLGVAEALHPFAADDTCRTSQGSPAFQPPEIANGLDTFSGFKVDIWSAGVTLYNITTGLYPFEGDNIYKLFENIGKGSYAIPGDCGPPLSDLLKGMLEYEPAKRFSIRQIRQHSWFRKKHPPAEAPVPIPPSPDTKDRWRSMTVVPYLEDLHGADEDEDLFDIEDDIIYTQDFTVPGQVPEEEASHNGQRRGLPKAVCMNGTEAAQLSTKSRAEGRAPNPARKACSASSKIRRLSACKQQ

[26] = molecular target: Tyrosine-protein kinase Lyn (Homo sapiens) (UniProt P07948); details: Compound concentration 1000.0 nM
[27] = molecular target: Mitogen-activated protein kinase kinase kinase 1 (Homo sapiens) (UniProt Q13233); details: Compound concentration 1000.0 nM
[28] = molecular target: Mitogen-activated protein kinase kinase kinase 3 (Homo sapiens) (UniProt Q99759); details: Compound concentration 1000.0 nM
[29] = molecular target: Mitogen-activated protein kinase kinase kinase kinase 5 (Homo sapiens) (UniProt Q9Y4K4); details: Compound concentration 1000.0 nM
[30] = molecular target: Dual specificity mitogen-activated protein kinase kinase 7 (Homo sapiens) (UniProt O14733); details: Compound concentration 1000.0 nM
[31] = molecular target: Serine/threonine-protein kinase Nek1 (Homo sapiens) (UniProt Q96PY6); details: Compound concentration 1000.0 nM
[32] = molecular target: Serine/threonine-protein kinase Nek5 (Homo sapiens) (UniProt Q6P3R8); details: Compound concentration 1000.0 nM
[33] = molecular target: Serine/threonine-protein kinase Nek6 (Homo sapiens) (UniProt Q9HC98); details: Compound concentration 1000.0 nM
[34] = molecular target: Serine/threonine-protein kinase PAK 2 (Homo sapiens) (UniProt Q13177); details: Compound concentration 1000.0 nM
[35] = molecular target: Cyclin-dependent kinase 2 homolog (Plasmodium falciparum (isolate 3D7)) (UniProt P61075); details: Compound concentration 1000.0 nM
Chain of Cyclin-dependent kinase 2 homolog (Plasmodium falciparum (isolate 3D7)) (P61075 whole entry): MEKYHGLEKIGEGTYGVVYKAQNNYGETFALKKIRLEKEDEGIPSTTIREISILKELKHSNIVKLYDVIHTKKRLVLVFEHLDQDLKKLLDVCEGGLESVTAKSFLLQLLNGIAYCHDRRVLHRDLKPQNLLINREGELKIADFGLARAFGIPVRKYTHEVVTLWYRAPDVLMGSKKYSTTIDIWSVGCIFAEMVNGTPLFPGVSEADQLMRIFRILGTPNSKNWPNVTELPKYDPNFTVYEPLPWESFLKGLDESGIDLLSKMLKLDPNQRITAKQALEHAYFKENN

[36] = molecular target: Protein kinase C eta type (Homo sapiens) (UniProt P24723); details: Compound concentration 1000.0 nM
[37] = molecular target: Serine/threonine-protein kinase RIO2 (Homo sapiens) (UniProt Q9BVS4); details: Compound concentration 1000.0 nM
[38] = molecular target: Ribosomal protein S6 kinase alpha-6 (Homo sapiens) (UniProt Q9UK32); details: Compound concentration 1000.0 nM
[39] = molecular target: Serine/threonine-protein kinase 35 (Homo sapiens) (UniProt Q8TDR2); details: Compound concentration 1000.0 nM
[40] = molecular target: Non-receptor tyrosine-protein kinase TYK2 (Homo sapiens) (UniProt P29597); details: Compound concentration 1000.0 nM
[41] = molecular target: Serine/threonine-protein kinase 32C (Homo sapiens) (UniProt Q86UX6); details: Compound concentration 1000.0 nM
Chain of Serine/threonine-protein kinase 32C (Homo sapiens) (Q86UX6 whole entry): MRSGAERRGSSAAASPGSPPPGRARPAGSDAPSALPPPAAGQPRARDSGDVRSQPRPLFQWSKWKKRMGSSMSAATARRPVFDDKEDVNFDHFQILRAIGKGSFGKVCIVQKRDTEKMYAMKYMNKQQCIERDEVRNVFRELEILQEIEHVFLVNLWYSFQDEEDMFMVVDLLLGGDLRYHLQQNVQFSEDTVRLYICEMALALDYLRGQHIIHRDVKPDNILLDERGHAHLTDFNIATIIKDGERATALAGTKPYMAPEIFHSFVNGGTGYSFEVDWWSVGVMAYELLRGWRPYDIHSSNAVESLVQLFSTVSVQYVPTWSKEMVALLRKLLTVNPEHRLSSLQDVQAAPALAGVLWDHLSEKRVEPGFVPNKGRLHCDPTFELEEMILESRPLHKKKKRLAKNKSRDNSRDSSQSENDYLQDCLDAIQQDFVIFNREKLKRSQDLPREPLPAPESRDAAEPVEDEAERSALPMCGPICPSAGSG

[42] = molecular target: Tyrosine-protein kinase ZAP-70 (Homo sapiens) (UniProt P43403); details: Compound concentration 1000.0 nM
Chain of Tyrosine-protein kinase ZAP-70 (Homo sapiens) (P43403 whole entry): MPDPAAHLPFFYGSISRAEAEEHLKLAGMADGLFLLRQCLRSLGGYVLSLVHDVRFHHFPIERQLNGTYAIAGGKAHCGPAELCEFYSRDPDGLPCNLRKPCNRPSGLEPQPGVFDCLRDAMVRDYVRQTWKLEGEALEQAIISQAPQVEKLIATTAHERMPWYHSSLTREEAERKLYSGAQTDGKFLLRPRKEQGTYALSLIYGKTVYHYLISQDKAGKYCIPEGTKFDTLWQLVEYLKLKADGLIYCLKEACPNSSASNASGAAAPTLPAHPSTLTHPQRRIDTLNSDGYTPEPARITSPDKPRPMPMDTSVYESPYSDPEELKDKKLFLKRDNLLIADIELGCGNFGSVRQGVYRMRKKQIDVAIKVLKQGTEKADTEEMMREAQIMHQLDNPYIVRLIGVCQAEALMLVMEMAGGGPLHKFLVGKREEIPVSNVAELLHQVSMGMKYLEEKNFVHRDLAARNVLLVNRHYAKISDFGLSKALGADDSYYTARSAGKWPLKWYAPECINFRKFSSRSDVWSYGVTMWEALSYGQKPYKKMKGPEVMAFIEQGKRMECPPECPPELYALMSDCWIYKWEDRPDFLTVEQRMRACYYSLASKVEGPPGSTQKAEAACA

[43] = molecular target: 5-hydroxytryptamine receptor 7 (Homo sapiens) (UniProt P34969); details: Compound concentration 10.0 uM
[44] = molecular target: Alpha-1B adrenergic receptor (Homo sapiens) (UniProt P35368); details: Compound concentration 10.0 uM
[45] = molecular target: Sigma non-opioid intracellular receptor 1 (Homo sapiens) (UniProt Q99720); details: Compound concentration 10.0 uM

Compound: C[C@@H](c1cccc(C#N)c1)n1cc(Cl)cc(C(N)=O)c1=N [(S)-9s]
- residual activity [1]: 0%
- residual activity [2]: 76%
- residual activity [3]: 82%
- residual activity [4]: 84%
- residual activity [5]: 88%
- residual activity [6]: 83%
- residual activity [7]: 98%
- residual activity [8]: 100%
- residual activity [9]: 81%
- residual activity [10]: 91%
- residual activity [11]: 85%
- residual activity [12]: 100%
- residual activity [13]: 100%
- residual activity [14]: 88%
- residual activity [15]: 100%
- residual activity [16]: 88%
- residual activity [17]: 100%
- residual activity [18]: 97%
- residual activity [19]: 98%
- residual activity [20]: 88%
- residual activity [21]: 79%
- residual activity [22]: 99%
- residual activity [23]: 87%
- residual activity [24]: 100%
- residual activity [25]: 74%
- residual activity [26]: 80%
- residual activity [27]: 82%
- residual activity [28]: 95%
- residual activity [29]: 96%
- residual activity [30]: 99%
- residual activity [31]: 100%
- residual activity [32]: 100%
- residual activity [33]: 79%
- residual activity [34]: 96%
- residual activity [35]: 100%
- residual activity [36]: 98%
- residual activity [37]: 83%
- residual activity [38]: 100%
- residual activity [39]: 100%
- residual activity [40]: 100%
- residual activity [41]: 100%
- residual activity [42]: 84%
- inhibition [43]: 4.17%
- inhibition [44]: -5.97%
- inhibition [45]: 17.4%

Compound: C[C@H](c1cccc(C#N)c1)n1cc(Cl)cc(C(N)=O)c1=N [(R)-9s]
- residual activity [1]: 83%
- residual activity [2]: 79%
- residual activity [3]: 100%
- residual activity [4]: 90%
- residual activity [5]: 100%
- residual activity [6]: 79%
- residual activity [7]: 97%
- residual activity [8]: 100%
- residual activity [9]: 78%
- residual activity [10]: 84%
- residual activity [11]: 88%
- residual activity [12]: 100%
- residual activity [13]: 100%
- residual activity [14]: 78%
- residual activity [15]: 86%
- residual activity [16]: 89%
- residual activity [17]: 100%
- residual activity [18]: 96%
- residual activity [19]: 100%
- residual activity [20]: 95%
- residual activity [21]: 83%
- residual activity [22]: 99%
- residual activity [23]: 82%
- residual activity [24]: 100%
- residual activity [25]: 96%
- residual activity [26]: 81%
- residual activity [27]: 90%
- residual activity [28]: 91%
- residual activity [29]: 100%
- residual activity [30]: 72%
- residual activity [31]: 100%
- residual activity [32]: 93%
- residual activity [33]: 94%
- residual activity [34]: 100%
- residual activity [35]: 100%
- residual activity [36]: 100%
- residual activity [37]: 74%
- residual activity [38]: 100%
- residual activity [39]: 88%
- residual activity [40]: 100%
- residual activity [41]: 100%
- residual activity [42]: 92%
- inhibition [43]: -7.43%
- inhibition [44]: -1.16%
- inhibition [45]: 17.7%

Reference: ChEMBL document CHEMBL4507301 (2021)
